Experimental data: PubChem BioAssay (NCI)
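GI50 = concentration required for 50% inhibition of growth. TGI marks complete inhibition of growth.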

Legend:
Assay in all cases: NCI-60 cell line screen, 384-well format
DU-145 prostate = system: DU-145 prostate
SNB-75 CNS = system: SNB-75 CNS
MOLT-4 leukemia = system: MOLT-4 leukemia
HCT-15 colon = system: HCT-15 colon
UACC-62 melanoma = system: UACC-62 melanoma
MDA-MB-468 breast = system: MDA-MB-468 breast
HOP-62 NSCLC = system: HOP-62 NSCLC
TK-10 renal = system: TK-10 renal
CAKI-1 renal = system: CAKI-1 renal
MDA-MB-435 melanoma = system: MDA-MB-435 melanoma
MDA-MB-231 breast = system: MDA-MB-231 breast
HCT-116 colon = system: HCT-116 colon
SK-OV-3 ovarian = system: SK-OV-3 ovarian
PC-3 prostate = system: PC-3 prostate
MCF7 breast = system: MCF7 breast
OVCAR-3 ovarian = system: OVCAR-3 ovarian
786-0 renal = system: 786-0 renal
LOX IMVI melanoma = system: LOX IMVI melanoma
NCI-H226 lung = system: NCI-H226 lung
CCRF-CEM leukemia = system: CCRF-CEM leukemia
SF-539 CNS = system: SF-539 CNS
SW-620 colon = system: SW-620 colon
NCI-H522 lung = system: NCI-H522 lung
SF-268 CNS = system: SF-268 CNS
SN12C renal = system: SN12C renal
EKVX NSCLC = system: EKVX NSCLC
A498 renal = system: A498 renal
K-562 leukemia = system: K-562 leukemia
NCI-H460 NSCLC = system: NCI-H460 NSCLC

Structure (SMILES): CNC(=O)c1c(F)cccc1Nc1nc(Nc2cc3c(cc2OC)CCN3C(=O)CN(C)C)nc2[nH]ccc12
- GI50 (DU-145 prostate): 1.82 µM
- TGI (DU-145 prostate): 3.6 µM
- GI50 (SNB-75 CNS): 2 µM
- TGI (SNB-75 CNS): 3.46 µM
- GI50 (MOLT-4 leukemia): 0.968 µM
- TGI (MOLT-4 leukemia): 2.14 µM
- GI50 (HCT-15 colon): 1.25 µM
- TGI (HCT-15 colon): 2.61 µM
- GI50 (UACC-62 melanoma): 1.56 µM
- TGI (UACC-62 melanoma): 2.91 µM
- GI50 (MDA-MB-468 breast): 1.56 µM
- TGI (MDA-MB-468 breast): 2.92 µM
- GI50 (HOP-62 NSCLC): 1.83 µM
- TGI (HOP-62 NSCLC): 3.39 µM
- GI50 (TK-10 renal): 1.86 µM
- TGI (TK-10 renal): 3.54 µM
- GI50 (CAKI-1 renal): 1.82 µM
- TGI (CAKI-1 renal): 3.24 µM
- GI50 (MDA-MB-435 melanoma): 1.51 µM
- TGI (MDA-MB-435 melanoma): 2.86 µM
- GI50 (MDA-MB-231 breast): 1.59 µM
- TGI (MDA-MB-231 breast): 2.98 µM
- GI50 (HCT-116 colon): 1.44 µM
- TGI (HCT-116 colon): 2.79 µM
- GI50 (SK-OV-3 ovarian): 1.97 µM
- TGI (SK-OV-3 ovarian): 3.45 µM
- GI50 (PC-3 prostate): 2.19 µM
- TGI (PC-3 prostate): 4.45 µM
- GI50 (MCF7 breast): 0.21 µM
- TGI (MCF7 breast): 1.72 µM
- GI50 (OVCAR-3 ovarian): 1.8 µM
- TGI (OVCAR-3 ovarian): 3.25 µM
- GI50 ([…]-0 renal): 1.48 µM
- TGI (786-0 renal): 2.84 µM
- GI50 (LOX IMVI melanoma): 1.61 µM
- TGI (LOX IMVI melanoma): 2.97 µM
- GI50 (NCI-H226 lung): 1.74 µM
- TGI (NCI-H226 lung): 3.74 µM
- GI50 (CCRF-CEM leukemia): 0.387 µM
- TGI (CCRF-CEM leukemia): 1.22 µM
- GI50 (SF-539 CNS): 1.8 µM
- TGI (SF-539 CNS): 3.2 µM
- GI50 (SW-620 colon): 1.18 µM
- TGI (SW-620 colon): 2.44 µM
- GI50 (NCI-H522 lung): 1.91 µM
- TGI (NCI-H522 lung): 3.33 µM
- GI50 (SF-268 CNS): 1.3 µM
- TGI (SF-268 CNS): 2.61 µM
- GI50 (SN12C renal): 2.05 µM
- TGI (SN12C renal): 3.5 µM
- GI50 (EKVX NSCLC): 1.6 µM
- TGI (EKVX NSCLC): 3.09 µM
- GI50 (A498 renal): 1.82 µM
- TGI (A498 renal): 3.22 µM
- GI50 (K-562 leukemia): 1.75 µM
- TGI (K-562 leukemia): 3.14 µM
- GI50 (NCI-H460 NSCLC): 1.24 µM
- TGI (NCI-H460 NSCLC): 2.53 µM
